Test results from patent US20200237909A1, “METHODS OF TREATING OR PREVENTING BREAST CANCER METASTASES USING ANTIBODIES TO JAGGED1 AND CHEMOTHERAPEUTIC AGENTS” (The Trustees of Princeton University, priority 2017, published 2020).
Where two headings read alike, the source gives them in different places.

How the values were obtained:
MSCs = assay: Stress inducers/inhibitors: Jagged1 expression and ROS production in MSCs; type: cell-based, mouse
Text: Next, which signaling pathway is responsible for Jagged1 induction after chemotherapy in osteoblast lineage cells was investigated. Chemotherapy generates many stress responses in cells, including endoplasmic reticulum stress (ER stress), and oxidative stress. Some of the stress conditions have been associated with the regulation of Jagged1 expression (Paul et al., 2014). Several treatments were used to mimic or inhibit these stress responses and then Jagged1 mRNA and protein levels were analyzed within the cells.
293T, H29-Clone #7, MC3T3-E1 Clone #4(denoted as MC3T3 for abbreviation thereafter), MCF7TR, mouse mesenchymal stromal cell (MSC, isolated from BALB/c), 4T1.2, SCP28, SCP28-Vector and -Jagged1 cells, SCP28, RAW264.7, and SUM1315-M1B1 cells were cultured according to American Type Culture Collection instructions and the inventors' previous studies (Ell et al., 2013; Ren et al., 2008; Sethi et al., 2011; Zheng et al., 2014). MSC cells were derived previously and were cultured in DMEM supplemented with 10% FBS, 30 ng/ml bFGF, 100 U/ml penicillin, and 100 μg/ml streptomycin (Ren et al., 2008). All plasmids were transfected into different cell lines using Lipofectamine 2000 following the manufacturer's manual (Life Technologies, CA, USA). To generate stable cell lines, a pLEX-MCS based lentivirus vector or a pMSCV-hygro based retrovirus vector was used in our study. Lentiviruses were packaged in HEK293T cells while retroviruses were packaged by using H29 cell line. Conditional media from these packaging cells containing viruses were collected 2 days and 3 days after transfection. Recipient cell lines were exposed to conditional media containing viruses supplemented with 2 μg/mL Polybrene for 48 h. Infected cells were selected with puromycin or hygromycin to generate stable expressing cell lines. 293T and H29clone #7 are cell lines from female humans. All other cancer cell lines are breast cancer cell lines from either female human or mouse.

[1] = In vivo toxicity of 15D11 (body weight, GI histology, ALT/AST, CBC, T cells)
Experimental: (§1) To analyze liver toxicity, the activity of alanine aminotransferase (ALT) and aspartate aminotransferase (AST) in the sera of these mice after the respective drug treatments was measured.
(§2) For IgG or 15D11 antibody treatment, mice were i.p. injected at the dosing of 10 mg/kg, twice a week.

[2] = mouse, in vivo
Experimental: as §1, §2

[3] = system: Notch downstream genes (human HES2, HEY1, HEY2); assay: Notch downstream gene expression in tumor cells co-cultured with MSC after chemotherapy; type: cell-based; settings: co-culture tumor cells after chemotherapy

Molecule: C[C@H]1CCC/C=C/[C@@H]2C[C@H](O)C[C@H]2[C@H](O)/C=C/C(=O)O1 [Brefeldin A (BFA), Brefeldin A]
- Jagged1 expression in MSCs (MSCs): did not induce Jagged1 expression

Molecule: O=S1(=O)N[C@@]2(CN1CC(F)(F)F)[C@@H]1CC[C@H]2Cc2ccc(/C=C/CN3CCC(C(F)(F)F)CC3)cc2C1 [GSI]
- general toxicity based on body weight measurement ([1]; 15D11 10 mg/kg, twice a week): significant weight loss
- GI track toxicity (H&E and Alcian blue staining) ([1]; mouse, in vivo): significant goblet cell metaplasia
- liver toxicity: ALT and AST activity in sera ([1]; mouse, in vivo): no change

Molecule: CC(=O)N[C@@H](CS)C(=O)O [N-Acetyl Cysteine]
- block of cisplatin and docetaxel induced ROS production (MSCs; MSCs): completely blocked
- block of cisplatin-induced Jagged1 expression (MSCs; MSCs): completely blocked

Molecule: ClC(Cl)(Cl)Cl [CCl4]
- liver toxicity: ALT and AST activity in sera [2]: dramatic increase

Molecule: Tunicamycin
- Jagged1 expression in MSCs (MSCs): did not induce Jagged1 expression

Molecule: CC(=O)O[C@@]12CO[C@@H]1C[C@H](O)[C@@]1(C)C(=O)[C@H](O)C3=C(C)[C@@H](OC(=O)[C@H](O)[C@@H](NC(=O)OC(C)(C)C)c4ccccc4)C[C@@](O)([C@@H](OC(=O)c4ccccc4)[C@H]21)C3(C)C [docetaxel]
- Notch downstream genes HES2, HEY1, HEY2 [3]: significantly upregulated
- ROS production in MSCs (MSCs): induced ROS production

Molecule: OO [H2O2]
- Jagged1 expression in MSCs (MSCs): induced a strong Jagged1 expression
